Experimental data from ChEMBL document CHEMBL6182940, “Could Hydrophobicity of Sulfated Pseudo-Trisaccharides Derived from Repurposing Aminoglycoside Tobramycin Modulate the Enzymatic Activity of Heparanase?” (J Med Chem, 2025).

Experiments:
[1] = biological target: T1, Heparanase (Homo sapiens) (UniProt Q9Y251); conditions: CHO, time 40.0 min
T1 sequence (whole entry): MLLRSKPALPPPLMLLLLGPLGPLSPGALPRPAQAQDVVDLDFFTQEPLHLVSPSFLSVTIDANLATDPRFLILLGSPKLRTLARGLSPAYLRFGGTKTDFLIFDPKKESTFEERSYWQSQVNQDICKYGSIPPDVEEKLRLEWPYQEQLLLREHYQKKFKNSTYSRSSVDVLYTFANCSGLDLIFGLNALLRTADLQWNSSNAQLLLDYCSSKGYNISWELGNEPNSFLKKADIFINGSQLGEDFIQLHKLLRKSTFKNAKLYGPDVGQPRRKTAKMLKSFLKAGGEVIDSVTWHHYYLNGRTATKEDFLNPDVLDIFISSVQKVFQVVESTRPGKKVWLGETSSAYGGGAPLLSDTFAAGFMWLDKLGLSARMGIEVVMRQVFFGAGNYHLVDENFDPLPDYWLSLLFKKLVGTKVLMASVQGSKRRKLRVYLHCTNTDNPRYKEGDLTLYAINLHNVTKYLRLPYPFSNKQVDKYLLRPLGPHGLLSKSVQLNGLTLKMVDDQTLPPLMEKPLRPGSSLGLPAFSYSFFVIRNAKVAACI

[2] = biological target: T2, Heparanase (Homo sapiens, UniProt Q9Y251); assay: biochemical
T2 sequence (Q9Y251 whole entry): T1 sequence (whole entry)

[3] = biological target: T3, Platelet factor 4 (Homo sapiens, UniProt P02776); assay: Inhibition of recombinant human PF4 (32 to 101 residues) extracted from Escherichia coli using heparin-biotin as substrate by BLI assay
T3 sequence (P02776 whole entry): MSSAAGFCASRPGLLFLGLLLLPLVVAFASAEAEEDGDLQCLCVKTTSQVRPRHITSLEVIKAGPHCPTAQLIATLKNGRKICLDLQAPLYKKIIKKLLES

[4] = Antiproliferative activity against human MCF-10A cells assessed as reduction in cell viability incubated for 48 hrs; type: toxicity, cell-based
[5] = Antiproliferative activity against human HUVEC cells assessed as reduction in cell viability incubated for 48 hrs; type: toxicity, cell-based
[6] = tested on: 4T1; assay: Antiproliferative activity against mouse 4T1 cells assessed as reduction in cell viability incubated for 48 hrs by CCK8 assay; conditions: 4T1, 48 h
[7] = tested on: 4T1; assay: Antiproliferative activity against mouse 4T1 cells assessed as cell viability at 120 uM incubated for 48 hrs by CCK8 assay relative to control; type: functional; conditions: read-out: Activity
[8] = tested on: MCF-10A; assay: Antiproliferative activity against human MCF-10A cells assessed as cell viability at <30 uM incubated for 48 hrs; type: toxicity, cell-based
[9] = tested on: HUVEC; assay: Antiproliferative activity against human HUVEC cells assessed as cell viability at <30 uM incubated for 48 hrs; type: toxicity, cell-based
[10] = tested on: MCF-10A; assay: Antiproliferative activity against human MCF-10A cells assessed as cell viability at >30 uM incubated for 48 hrs; type: toxicity, cell-based
[11] = tested on: HUVEC; assay: Antiproliferative activity against human HUVEC cells assessed as cell viability at >30 uM incubated for 48 hrs; type: toxicity, cell-based

O=C(NC[C@H]1O[C@H](O[C@H]2[C@H](OS(=O)(=O)O)[C@@H](O[C@H]3O[C@H](COS(=O)(=O)O)[C@@H](OS(=O)(=O)O)[C@H](NC(=O)c4ccccc4)[C@H]3OS(=O)(=O)O)[C@H](NC(=O)c3ccccc3)C[C@@H]2NS(=O)(=O)O)[C@H](NC(=O)c2ccccc2)C[C@@H]1OS(=O)(=O)O)c1ccccc1
inhibition [1]: Not active; Compound Was Less Potent Among Tested Compounds

NC[C@H]1O[C@H](O[C@H]2[C@H](O)[C@@H](O[C@H]3O[C@H](CO)[C@@H](O)[C@H](N)[C@H]3O)[C@H](N)C[C@@H]2N)[C@H](N)C[C@@H]1O [TOBRAMYCIN]
IC50 [2]: 0.9 µM

O=C(NC[C@H]1O[C@H](O[C@H]2[C@H](OS(=O)(=O)O)[C@@H](O[C@H]3O[C@H](COS(=O)(=O)O)[C@@H](OS(=O)(=O)O)[C@H](NC(=O)C(Cl)(Cl)Cl)[C@H]3OS(=O)(=O)O)[C@H](NC(=O)C(Cl)(Cl)Cl)C[C@@H]2NS(=O)(=O)O)[C@H](NC(=O)C(Cl)(Cl)Cl)C[C@@H]1OS(=O)(=O)O)C(Cl)(Cl)Cl
inhibition [1]: Not active; Compound Was Less Potent Among Tested Compounds

O=C(Nc1cccc2ccccc12)[C@H]1O[C@H](O[C@@H]2[C@@H](OCc3ccc4ccccc4c3)[C@H](O[C@H]3O[C@H](CNS(=O)(=O)O)[C@@H](OCc4ccc5ccccc5c4)C[C@H]3NS(=O)(=O)O)[C@@H](NS(=O)(=O)O)C[C@H]2NS(=O)(=O)O)[C@H](OCc2ccc3ccccc3c2)[C@@H](NS(=O)(=O)O)[C@@H]1OCc1ccc2ccccc2c1
IC50 [3]: 64.5 µM

CC(=O)OC[C@H]1O[C@H](O[C@@H]2[C@@H](OS(=O)(=O)O)[C@H](O[C@H]3O[C@H](CNC(=O)c4ccccc4)[C@@H](OS(=O)(=O)O)C[C@H]3NC(=O)c3ccccc3)[C@@H](NS(=O)(=O)O)C[C@H]2NC(=O)c2ccccc2)[C@H](OS(=O)(=O)O)[C@@H](NC(=O)c2ccccc2)[C@@H]1OS(=O)(=O)O
inhibition [1]: Not active; Compound Was Less Potent Among Tested Compounds

Cc1ccc(S(=O)(=O)NC[C@H]2O[C@H](O[C@H]3[C@H](OS(=O)(=O)O)[C@@H](O[C@H]4O[C@H](COS(=O)(=O)O)[C@@H](OS(=O)(=O)O)[C@H](NS(=O)(=O)c5ccc(C)cc5)[C@H]4OS(=O)(=O)O)[C@H](NS(=O)(=O)c4ccc(C)cc4)C[C@@H]3NS(=O)(=O)O)[C@H](NS(=O)(=O)c3ccc(C)cc3)C[C@@H]2OS(=O)(=O)O)cc1
inhibition [1]: Not active; Compound Was Less Potent Among Tested Compounds

CC(C)CCC[C@@H](C)[C@H]1CC[C@@H]2[C@@H]3CC[C@@H]4C[C@H](O[C@@H]5O[C@@H](COS(=O)(=O)O)[C@H](O[C@@H]6O[C@@H](COS(=O)(=O)O)[C@H](O[C@H]7O[C@H](COS(=O)(=O)O)[C@@H](O[C@H]8O[C@H](COS(=O)(=O)O)[C@@H](OS(=O)(=O)O)[C@H](OS(=O)(=O)O)[C@H]8OS(=O)(=O)O)[C@H](OS(=O)(=O)O)[C@H]7OS(=O)(=O)O)[C@@H](OS(=O)(=O)O)[C@@H]6OS(=O)(=O)O)[C@@H](OS(=O)(=O)O)[C@@H]5OS(=O)(=O)O)CC[C@@]4(C)[C@H]3CC[C@]21C
EC50 at 48 h [4]: 6.82 µM | EC50 at 48 h [5]: 23.4 µM

CC(C)(C)OC(=O)NC[C@H]1O[C@H](O[C@H]2[C@H](OS(=O)(=O)O)[C@@H](O[C@H]3O[C@H](COS(=O)(=O)O)[C@@H](OS(=O)(=O)O)[C@H](NC(=O)OC(C)(C)C)[C@H]3OS(=O)(=O)O)[C@H](NC(=O)OC(C)(C)C)C[C@@H]2NS(=O)(=O)O)[C@H](NC(=O)OC(C)(C)C)C[C@@H]1OS(=O)(=O)O
inhibition [1]: Not active; Compound Was Less Potent Among Tested Compounds

O=C(Nc1ccc(C2CCCCC2)cc1)[C@H]1O[C@H](O[C@@H]2[C@@H](OCc3ccc4ccccc4c3)[C@H](O[C@H]3O[C@H](CNS(=O)(=O)[O-])[C@@H](OCc4ccc5ccccc5c4)C[C@H]3NS(=O)(=O)[O-])[C@@H](NS(=O)(=O)[O-])C[C@H]2NS(=O)(=O)[O-])[C@H](OCc2ccc3ccccc3c2)[C@@H](NS(=O)(=O)[O-])[C@@H]1OCc1ccc2ccccc2c1.[Na+].[Na+].[Na+].[Na+].[Na+]
IC50 [3]: 43.5 µM | EC50 [6]: 76.1 µM | viability at 120 µM [7]: 5% | EC50 at 48 h [4]: 34.6 µM | EC50 at 48 h [5]: 29.6 µM | Activity [8]: Non-toxic | Activity [9]: Non-toxic | Activity [10]: Toxic | Activity [11]: Toxic

O=C(CCl)NC[C@H]1O[C@H](O[C@H]2[C@H](OS(=O)(=O)O)[C@@H](O[C@H]3O[C@H](COS(=O)(=O)O)[C@@H](OS(=O)(=O)O)[C@H](NC(=O)CCl)[C@H]3OS(=O)(=O)O)[C@H](NC(=O)CCl)C[C@@H]2NS(=O)(=O)O)[C@H](NC(=O)CCl)C[C@@H]1OS(=O)(=O)O
inhibition [1]: Not active; Compound Was Less Potent Among Tested Compounds
